Reference: ChEMBL document CHEMBL5608174, “Synthesis and biological evaluation of 4-phenyl-5-quinolinyl substituted isoxazole analogues as potent cytotoxic and tubulin polymerization inhibitors against ESCC” (Eur J Med Chem, 2024)
The source made the active and inactive calls. The calls are words filed in the database; no cut-off is given here.

Key:
Sus scrofa = species on record: Sus scrofa; assay: Inhibition of porcine brain tubulin polymerization measured every 30 secs for 120 times in the presence of GTP by fluorescence based assay; conditions: time 60.0 min
KYSE-30 [1] = assay: Induction of apoptosis in human KYSE-30 cells assessed as necrotic cells at 10 nmol/L incubated for 48 hrs by Annexin V-FITC/PI staining based flow cytometry analysis (reference value: 1.59 %); assay type: functional
[2] = tested on: Esophageal squamous cell carcinoma cell; assay: Induction of apoptosis in human Esophageal squamous cell carcinoma cell assessed as […] of Bax level at 5 to 20 nmol/L incubated for 48 hrs by Western blot analysis; assay type: functional, cell-based; conditions: dose 5-20 nmol/L
KYSE-30 [3] = assay: Inhibition of cell migration in human KYSE-30 cells at 2 to 6 nmol/L incubated upto 48 hrs by wound healing assay; assay type: functional, cell-based; conditions: dose 2-6 nmol/L
KYSE-30 [4] = assay: Upregulation of p-Histone H3 level in human KYSE-30 cells at 5 to 20 nmol/L by Western blot analysis; assay type: functional, cell-based; conditions: dose 5-20 nmol/L
[5] = Toxicity in female BALB/c-nu nude mouse xenografted with human KYSE-30 cells assessed as effect on serum ALT level at 6 to 12 mg/kg, ip administered for 15 days by biochemical analysis; assay type: organism-based; conditions: in vivo, 360 h, dose 6-12 mg/kg, time 15 day
[6] = Toxicity in female BALB/c-nu nude mouse xenografted with human KYSE-30 cells assessed as effect on serum blood urea nitrogen level at 6 to 12 mg/kg, ip administered for 15 days by biochemical analysis; assay type: organism-based; conditions: in vivo, 360 h, dose 6-12 mg/kg, time 15 day
KYSE-30 [7] = assay: Induction of morphological changes in human KYSE-30 cells assessed as deformation at 5 to 20 nmol/L incubated for 48 hrs by Bright field microscopic analysis; assay type: functional, cell-based; conditions: dose 5-20 nmol/L
KYSE-30 [8] = assay: Induction of apoptosis in human KYSE-30 cells assessed as viable cells at 20 nmol/L incubated for 48 hrs by Annexin V-FITC/PI staining based flow cytometry analysis (reference value: 88.76 %); assay type: functional; conditions: read-out: Activity
[9] = molecular target: Tubulin beta (Homo sapiens) (UniProt P68371+Q9H4B7+Q13509+P04350+Q3ZCM7+P07437+Q13885+Q9BVA1+Q9BUF5+A6NNZ2); assay: Binding affinity to beta-tubulin colchicine binding site in human KYSE-30 cells assessed as inhibition of EBI-beta-tubulin adduct band formation at 0 to 10 micromol/L preincubated for 2 hrs followed by EBI addition measured after 2 hrs by EBI competition based Western blotting analysis; assay type: cell-based; conditions: dose 0-10 µmol/L, time 4.0 hrs
[10] = tested on: Esophageal squamous cell carcinoma cell; assay: Antiproliferative activity against human Esophageal squamous cell carcinoma cells assessed as reduction in EdU-positive cells at 5 to 20 nmol/L incubated for 48 hrs by EdU staining based inverted fluorescence microscopic analysis; assay type: functional; conditions: dose 5-20 nmol/L
[11] = Toxicity in female BALB/c-nu nude mouse xenografted with human KYSE-30 cells assessed as change in lung pathology at 6 to 12 mg/kg, ip administered for 15 days by H and E staining based analysis; assay type: organism-based; conditions: in vivo, 360 h, dose 6-12 mg/kg, time 15 day
[12] = Toxicity in female BALB/c-nu nude mouse xenografted with human KYSE-30 cells assessed as effect on serum total bilirubin level at 6 to 12 mg/kg, ip administered for 15 days by biochemical analysis; assay type: organism-based; conditions: in vivo, 360 h, dose 6-12 mg/kg, time 15 day
KYSE-70 cell line [13] = assay: Induction of apoptosis in human KYSE-70 cells assessed as early apoptotic cells at 10 nmol/L incubated for 48 hrs by Annexin V-FITC/PI staining based flow cytometry analysis (reference value: 1.78%); assay type: functional
HCT-116 = assay: cells; conditions: Homo sapiens, HCT-116, 48 h
Description: Antiproliferative activity against human HCT-116 cells assessed as inhibition of cell proliferation incubated for 48 hrs by MTT assay

KYSE-30 [14] = assay: Induction of morphological changes in human KYSE-30 cells assessed as decrease in cell density at 5 to 20 nmol/L incubated for 48 hrs by Calcein AM/PI staining based inverted fluorescence microscopic analysis; assay type: functional; conditions: dose 5-20 nmol/L
KYSE-70 cell line [15] = assay: Antiproliferative activity against human KYSE-70 cells assessed as inhibition of cell growth incubated for 48 hrs by MTT assay; assay type: functional, cell-based; conditions: KYSE-70, 48 h
KYSE-70 cell line [16] = assay: Induction of apoptosis in human KYSE-70 cells assessed as early apoptotic cells at 20 nmol/L incubated for 48 hrs by Annexin V-FITC/PI staining based flow cytometry analysis (reference value: 1.78%); assay type: functional
KYSE-30 [17] = assay: Inhibition of colony formation in human KYSE-30 cells at 4 nmol/L incubated for 7 days by crystal violet staining based analysis; assay type: functional, cell-based; conditions: time 7.0 day
[18] = tested on: Esophageal squamous cell carcinoma cell; assay: Induction of apoptosis in human Esophageal squamous cell carcinoma cell assessed as increase in caspase-3 activation at 5 to 20 nmol/L incubated for 48 hrs by Western blot analysis; assay type: functional, cell-based; conditions: dose 5-20 nmol/L
Tubulin (Homo sapiens) [19] = molecular target: T1, Tubulin (Homo sapiens) (UniProt P68371+Q9H4B7+P0DPH7+P68366+Q13509+Q71U36+P04350+Q3ZCM7+P07437+P68363+Q9BQE3+Q6PEY2+Q13885+Q9BVA1+Q9BUF5); assay: Inhibition of tubulin polymerization in human KYSE-30 cells assessed as effect on mitotic phase at 5 to 20 nmol/L incubated for 24 hrs by DAPI staining based fluorescence microscopic analysis; assay type: cell-based; conditions: dose 5-20 nmol/L
[20] = Toxicity in female BALB/c-nu nude mouse xenografted with human KYSE-30 cells assessed as change in kidney pathology at 6 to 12 mg/kg, ip administered for 15 days by H and E staining based analysis; assay type: organism-based; conditions: in vivo, 360 h, dose 6-12 mg/kg, time 15 day
KYSE-30 [21] = assay: Antitumor activity against human KYSE-30 cells xenografted in female BALB/c-nu nude mouse assessed as reduction in tumor weight at 6 to 12 mg/kg, ip administered daily for 15 days; assay type: functional, organism-based; conditions: dose 6-12 mg/kg, time 15.0 day
KYSE-30 [22] = tested on: KYSE-30
Description: Antiproliferative activity against human KYSE-30 cells assessed as inhibition of cell proliferation incubated for 48 hrs by MTT assay

KYSE-70 cell line [23] = assay: Effect on nuclear replication in human KYSE-70 cells at 5 to 20 nmol/L incubated for 24 hrs by DAPI staining based fluorescence microscopic analysis; assay type: functional, cell-based; conditions: dose 5-20 nmol/L
[24] = Toxicity in female BALB/c-nu nude mouse xenografted with human KYSE-30 cells assessed as effect on serum uric acid level at 6 to 12 mg/kg, ip administered for 15 days by biochemical analysis; assay type: organism-based; conditions: in vivo, 360 h, dose 6-12 mg/kg, time 15 day
MGC-803 = assay: Antiproliferative activity against human MGC-803 cells assessed as inhibition of cell proliferation incubated for 48 hrs by MTT assay; assay type: functional, cell-based; conditions: MGC-803, 48 h
KYSE-30 [25] = assay: Induction of apoptosis in human KYSE-30 cells assessed as viable cells at 5 nmol/L incubated for 48 hrs by Annexin V-FITC/PI staining based flow cytometry analysis (reference value: 88.76 %); assay type: functional; conditions: read-out: Activity
KYSE-70 cell line [26] = assay: Inhibition of cell migration in human KYSE-70 cells at 2 to 6 nmol/L incubated upto 48 hrs by wound healing assay; assay type: functional, cell-based; conditions: dose 2-6 nmol/L
KYSE-30 [27] = assay: Induction of morphological changes in human KYSE-30 cells assessed as induction of fragmentation in nuclei at 5 to 20 nmol/L incubated for 48 hrs by DAPI staining based fluorescence microscopic analysis; assay type: functional, cell-based; conditions: dose 5-20 nmol/L
Tubulin (Homo sapiens) [28] = molecular target: T1, Tubulin (Homo sapiens); assay: Inhibition of tubulin polymerization in human KYSE-30 cells assessed as multinucleation of cells at 5 to 20 nmol/L incubated for 24 hrs by DAPI staining based fluorescence microscopic analysis; assay type: cell-based; conditions: dose 5-20 nmol/L
KYSE-30 [29] = assay: Induction of apoptosis in human KYSE-30 cells assessed as early apoptotic cells at 5 nmol/L incubated for 48 hrs by Annexin V-FITC/PI staining based flow cytometry analysis (reference value: 4.38 %); assay type: functional

COc1ccc(-c2cnoc2-c2cc(C)nc3ccccc23)cc1
inhibition (Sus scrofa): Active
Activity (KYSE-30 [1]): 2.86%
Activity [2]: Active
inhibition (KYSE-30 [3]): Active
Activity (KYSE-30 [4]): Active
Activity [5]: Non-Toxic
Activity [6]: Non-Toxic
Activity (KYSE-30 [7]): Active
viability at 0.02 µM (KYSE-30 [8]): 38.9%
Activity [9]: Active
Activity [10]: Active
Activity [11]: Non-Toxic
Activity [12]: Non-Toxic
Activity (KYSE-70 cell line [13]): 28.93%
IC50 (HCT-116): 26 nM
Activity (KYSE-30 [14]): Active
IC50 (KYSE-70 cell line [15]): 7.79 nM
Activity (KYSE-70 cell line [16]): 30.31%
inhibition (KYSE-30 [17]): Active
Activity [18]: Active
inhibition (Tubulin (Homo sapiens) [19]): Active
Activity [20]: Non-Toxic
Activity (KYSE-30 [21]): Active
IC50 (KYSE-30 [22]): 13.1 nM
Activity (KYSE-70 cell line [23]): inactive
Activity [24]: Non-Toxic
IC50 (MGC-803): 14 nM
viability at 0.005 µM (KYSE-30 [25]): 38.8%
inhibition (KYSE-70 cell line [26]): Active
Activity (KYSE-30 [27]): Active
inhibition (Tubulin (Homo sapiens) [28]): Active
Activity (KYSE-30 [29]): 46.64%
